Laboratory results published in patent US20030187048A1, “Method for inhibiting skin lesion formation using histamine as the active ingredient” (priority 1991, published 2003).
Where “and” joins values, the source holds several entries; their conditions need not be identical. Identical values can stand only once. Like-named read-outs stand apart in the source and are kept apart here.

Tests used:
[1] = system: oral mucositis (stomatitis) secondary to chemotherapy; details: for Mean % Reduction In Symptom (discomfort with food/drink) / Mean Percent Reduction From Original Per Day / Mean % Reduction In Symptom: group mean
Source text: Prospective subjects were considered for the study if their mucositis (stomatitis) was diagnosed by their oncologist as secondary to their chemotherapy and if their oncologist recommended them as candidates for the study.
Patients were randomly assigned to one of three active ingredient levels being evaluated.
Following diagnosis and recommendation of oral mucositis patients by their oncologists, qualified participants were instructed to topically, intraorally apply one teaspoonful of their respective, randomly assigned gel by swishing and holding the gel in their mouth for 2 minutes and then expectorating the gel.
Evaluation of the extent of the oral mucous membrane involvement was based on each patient's estimate of this involvement (as a percentage) of the entire oral mucous membranes and each patient was contacted daily for this estimate as well as his or her estimate of the symptomatic relief of 5 common oral symptoms associated with mucositis (stomatitis) secondary to chemotherapy. In an attempt to quantify responses, patients were asked to rate each symptom each day an a scale of 0 to 5 with 0 representing no evidence of the symptom and 5 representing the worst or most vi prominent evidence of the symptom ever for the patient.
Patient compliance with the study regimen and the use of other medications or treatments was also evaluated.

Allergic Conjunctivitis = system: Allergic Conjunctivitis
Protocol: The composition of the present invention includes initial preparation of a gel base by adding 0.8% CARBOPOL 940, which is a vinyl polymer, to distilled water. This mixture was allowed to stand for several hours until the polymer was wetted and a gel was formed. This mixture then was blended by means of a ordinary high speed mixer, such as a Lightning Labmaster II until a homogenous mixture is formed. At this point, a neutralizing and emulsifying agent such as an amino alcohol was added, forming an emulsion. […] This composition then was applied topically to various types of lesions, as subsequently described. […] Propylparaben or methylparaben may be used as a preservative. For “unidose” dispensers containing only two to three drops, no preservatives are used, as it is known that preservatives in ophthalmic solutions frequently cause undesirable side effects. The term semi-synthetic water soluble polymer as used herein includes hydroxy methylcellulose or carboxy methylcellulose. Carbopol is widely available in different viscosities.
Treatment consisted of topical ophthalmic application of both ophthalmic solution concentrations to their randomly assigned patients 2 times a day for 5 days. […] Each patient was clinically evaluated at 48 hours and 120 hours following the initiation of treatment for 2 parameters of tissue damage associated with Allergic Conjunctivitis. In addition, each patient was asked to evaluate subjectively 3 symptoms associated with Allergic Conjunctivitis 48 hours and 120 hours after treatment initiation. The percent reduction from the initial presentation of each of the parameters of tissue damage and the initial presentation for each additional symptom evaluated was calculated from 48 and 120 hour post treatment initiation data.
Patients were randomly assigned to one of two active levels being evaluated.
Clinical evaluation was performed at 48 hours and 120 hours post treatment initiation. Each patient was asked to subjectively evaluate 3 additional symptoms associated with Allergic Conjunctivitis by rating each symptom on a scale of 0 to 5 with 0 representing no evidence of symptom and 5 representing the greatest evidence of the symptom ever by the patient. clinical evaluation of tissue damage parameters was also done using the same scale of 0 to 5.
Patient compliance with the treatment regimen and the use of other medications was also evaluated.

[2] = 0.0067% ophth soln, 48 hrs, per patient
[3] = 0.0067% ophth soln, 120 hrs, per patient
[4] = 0.0067% ophth soln, scale 0 to 5, per patient

NCCc1c[nH]cn1 [IEP, 1H-imidazole-4-ethanamine,phosphate]
Mean % Reduction In Symptom (discomfort with food/drink) ([1]; 0.0045% IEP gel): 55.6% | Mean Percent Reduction From Original Involvement Per Day ([1]; 0.0045% IEP gel, per patient): 33.3% and 18.0% and 25.0% | Percent of Mouth that Lesions Occupy ([1]; 0.0045% gel, Day 4, per patient): 0% and 25% and 1% | Percent of Mouth that Lesions Occupy ([1]; 0.0045% gel, Day 5, per patient): 0% | Percent of Mouth that Lesions Occupy ([1]; 0.0045% gel, Day 6, per patient): 0% (2×) and 5% | Percent of Mouth that Lesions Occupy ([1]; 0.0045% gel, Day 7, per patient): 0% | Mean Percent Reduction From Original Per Day ([1]; 0.0045% gel): 25.4% | Mean % Reduction In Symptom (discomfort with food/drink) ([1]; 0.0275% IEP gel): 52.8% | Mean Percent Reduction From Original Involvement Per Day ([1]; 0.0275% IEP gel, per patient): 50.0% and 33.3% (2×) | Percent of Mouth that Lesions Occupy ([1]; 0.0275% gel, Day 1 of treatment, per patient): 50% and 25% (2×) | Percent of Mouth that Lesions Occupy ([1]; 0.0275% gel, Day 2, per patient): 30% and 25% (2×) | Percent of Mouth that Lesions Occupy ([1]; 0.0275% gel, Day 3, per patient): 25% (2×) and 0% | Percent of Mouth that Lesions Occupy ([1]; 0.0275% gel, Day 4, per patient): 0% | Percent of Mouth that Lesions Occupy ([1]; 0.0275% gel, Day 5, per patient): 0% | Percent of Mouth that Lesions Occupy ([1]; 0.0275% gel, Day 6, per patient): 0% | Percent of Mouth that Lesions Occupy ([1]; 0.0275% gel, Day 7, per patient): 0% | Mean Percent Reduction From Original Per Day ([1]; 0.0275% gel): 38.9% | Difference in reduction of oral mucous membrane involvement vs placebo ([1]; 0.0275% vs placebo, p<.O1): highly statistically significant | Mean % Reduction In Symptom ([1]; Table 9.7, 0.0045% gel): 58.3% | Mean % Reduction In Symptom ([1]; Table 9.7, 0.0275% gel): 83.3% | Mean Percent Reduction Per Day in Discomfort with Food/Drink ([1]; Table 9.7, 0.0275% gel, per patient): 100.0% (2×) and 50.0% | Untoward effects ([1]; in vivo): no untoward effects | Edema, Percent Reduction from Pre-Treatment Value (Allergic Conjunctivitis; [2]): 66.67% and 50.0% and 100.0% | Itching, Percent Reduction from Pre-Treatment Value (Allergic Conjunctivitis; [2]): 100.0% (2×) and 50.0% | Level of Discomfort, Percent Reduction from Pre-Treatment Value (Allergic Conjunctivitis; [2]): 66.67% and 75.0% and 100.0% | Redness, Percent Reduction from Pre-Treatment Value (Allergic Conjunctivitis; [2]): 66.67% (2×) and 75.0% | Tearing, Percent Reduction from Pre-Treatment Value (Allergic Conjunctivitis; [2]): 100.0% and 50.0% | Edema, Percent Reduction from Pre-Treatment Value (Allergic Conjunctivitis; [3]): 100.0% | Itching, Percent Reduction from Pre-Treatment Value (Allergic Conjunctivitis; [3]): 100.0% | Level of Discomfort, Percent Reduction from Pre-Treatment Value (Allergic Conjunctivitis; [3]): 66.7% and 100.0% (2×) | Redness, Percent Reduction from Pre-Treatment Value (Allergic Conjunctivitis; [3]): 100.0% and 75.0% and 66.67% | Tearing, Percent Reduction from Pre-Treatment Value (Allergic Conjunctivitis; [3]): 100.0% (2×) and 75.0% | Conjunctival Injection or Redness, Value at 48 Hours (Allergic Conjunctivitis; [4]): 1 (2×) and 3 | Edema, Value at 120 Hours (Allergic Conjunctivitis; [4]): 0 | Itching, Value at 120 Hours (Allergic Conjunctivitis; [4]): 0 | Difference in percent reduction of tissue damage parameters and symptoms vs placebo ophthalmic solution (Allergic Conjunctivitis; 0.0067% ophthalmic solution): either significant (p<0.05) or highly significant (p<.O1) | Untoward effects (Allergic Conjunctivitis; in vivo): no untoward effects
